Measured values as given in patent US20170209432A1, “LYSINE DEMETHYLASE INHIBITORS FOR MYELOPROLIFERATIVE OR LYMPHOPROLIFERATIVE DISEASES OR DISORDERS” (ORYZON GENOMICS S.A., priority 2011, published 2017).
pIC50: −log10 of the molar value. Where two headings read alike, the source gives them in different places.

How the values were obtained:
[1] = tested on: K562 chronic myelogenous leukemia cells; experiment: In vitro cytotoxicity, fluorometry-based cell viability, K562; conditions: Homo sapiens, K562, 72 h
Protocol: (§1) K562 chronic myelogenous leukemia cells were seeded at different cell densities in 96-well plates. 24 hours later, compounds were added at serial dilutions.

platelets = experiment: Platelet levels in mice after 5 consecutive once daily injections; format: in vivo, mice (Hsd:Athymic Nude-Foxn1nu); conditions: blood 60min after last dose
Protocol: On the fifth day, 60min after the administration, mice were sacrificed and blood was collected in sodium citrate-containing tubes for haemogram analysis. Platelet levels were determined and referred as % of platelets compared with the levels found in mice treated with vehicle. Platelet levels were determined in a standard hematology analyzer (Abacus Junior Vet, from Diatron) following the manufacturer's instructions.
20% 2-hydroxypropyl-β-cyclodextrin in H2O was used as a vehicle. When necessary, 10% DMSO was also added in the vehicle. Each day, compounds were administered in a single intraperitoneal injection with administration volumes of 15 ml/kg.
Mice strain was Hsd:Athymic Nude-Foxn1nu. Animals were maintained in air and temperature controlled cages with regular supply of water and food.

[2] = target: T1, Human recombinant monoamine oxidase MAO-A (Homo sapiens, UniProt P21397); experiment: MAO-A inhibition, kynuramine fluorescence assay; format: biochemical
T1 construct: purchased Sigma Aldrich
T1 sequence (P21397 1-527): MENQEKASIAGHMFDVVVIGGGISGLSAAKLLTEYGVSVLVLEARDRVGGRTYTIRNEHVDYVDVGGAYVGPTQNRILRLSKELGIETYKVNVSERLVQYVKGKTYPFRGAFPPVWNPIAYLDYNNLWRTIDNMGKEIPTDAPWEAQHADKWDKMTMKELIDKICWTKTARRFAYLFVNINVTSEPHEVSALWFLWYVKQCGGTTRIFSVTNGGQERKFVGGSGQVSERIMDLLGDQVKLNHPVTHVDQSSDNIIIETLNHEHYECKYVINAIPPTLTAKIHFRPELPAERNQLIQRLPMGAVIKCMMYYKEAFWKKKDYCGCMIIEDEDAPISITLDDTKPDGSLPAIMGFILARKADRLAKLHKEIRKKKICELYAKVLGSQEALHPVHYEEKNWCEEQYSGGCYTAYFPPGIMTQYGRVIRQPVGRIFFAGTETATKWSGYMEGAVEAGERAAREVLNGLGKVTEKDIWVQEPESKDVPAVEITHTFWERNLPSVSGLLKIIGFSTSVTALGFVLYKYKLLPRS
Description: (§2) Human recombinant monoamine oxidase proteins MAO-A and MAO-B were purchased from Sigma Aldrich. MAOs catalyze the oxidative deamination of primary, secondary and tertiary amines. In order to monitor MAO enzymatic activities and/or their inhibition rate by inhibitor(s) of interest, a fluorescent-based (inhibitor)-screening assay was set up. 3-(2-Aminophenyl)-3-oxopropanamine (kynuramine dihydrobromide, Sigma Aldrich), a non fluorescent compound was chosen as a substrate. Kynuramine is a non-specific substrate for both MAOs activities. While undergoing oxidative deamination by MAO activities, kynuramine is converted into 4-hydroxyquinoline (4-HQ), a resulting fluorescent product.
The monoamine oxidase activity was estimated by measuring the conversion of kynuramine into 4-hydroxyquinoline. Assays were conducted in 96-well black plates with clear bottom (Corning) in a final volume of 100 μL. The assay buffer was 100 mM HEPES, pH 7.5. Each experiment was performed in triplicate within the same experiment.
Briefly, a fixed amount of MAO (0.25 μg for MAO-A and 0.5 μg for MAO-B) was incubated on ice for 15 minutes in the reaction buffer, in the absence and/or in the presence of various concentrations of inhibitor (e.g., from 0 to 50 μM, depending on the inhibitor strength).
(§3) After leaving the enzyme(s) interacting with the inhibitor, 60 to 90 μM of kynuramine was added to each reaction for MAO-B and MAO-A assay respectively, and the reaction was left for 1 hour at 37° C. in the dark. The oxidative deamination of the substrate was stopped by adding 50 μL (v/v) of NaOH 2N. The conversion of kynuramine to 4-hydroxyquinoline, was monitored by fluorescence (excitation at 320 nm, emission at 360 nm) using a microplate reader (Infinite 200, Tecan). Arbitrary units were used to measure levels of fluorescence produced in the absence and/or in the presence of inhibitor.
(§4) The Ki (IC50) of each inhibitor was determined at Vmax/2.

LSD1 = LSD1 (Homo sapiens, UniProt O60341); experiment: LSD1 demethylase inhibition, Amplex Red peroxide/peroxidase-coupled assay; format: biochemical; set-up: purchased BPS Bioscience Inc
Description: Compounds for use in the methods of the invention can be identified by their ability to inhibit LSD1. The ability of the compounds of the invention to inhibit LSD1 can be tested as follows. Human recombinant LSD1 protein was purchased from BPS Bioscience Inc. In order to monitor LSD1 enzymatic activity and/or its inhibition rate by our inhibitor(s) of interest, di-methylated H3-K4 peptide (Millipore) was chosen as a substrate. The demethylase activity was estimated, under aerobic conditions, by measuring the release of H2O2 produced during the catalytic process, using the Amplex® Red peroxide/peroxidase-coupled assay kit (Invitrogen).
Within the experiment, each concentration of inhibitor was tested in triplicate. […] The enzymatic reactions were set up in a 50 mM sodium phosphate, pH 7.4 buffer. At the end of the incubation, Amplex® Red reagent and horseradish peroxidase (HPR) solution were added to the reaction according to the recommendations provided by the supplier (Invitrogen), and left to incubate for 30 extra minutes at room temperature in the dark. A 1 μM H2O2 solution was used as a control of the kit efficiency. The conversion of the Amplex® Red reagent to resorufin due to the presence of H2O2 in the assay, was monitored by fluorescence (excitation at 540 nm, emission at 590 nm) using a microplate reader (Infinite 200, Tecan). Arbitrary units were used to measure level of H2O2 produced in the absence and/or in the presence of inhibitor.
The maximum demethylase activity of LSD1 was obtained in the absence of inhibitor and corrected for background fluorescence in the absence of LSD1. The Ki (IC50) of each inhibitor was estimated at half of the maximum activity.

[3] = tested on: H3K4 methylation in SH-SY5Y cells; experiment: Western blot for dimethylated H3-K4 in cells grown with compound; format: cell-based
Description: FIG. 3 Compound Dual-1 Increases Histone Methylation.
B-actin was used as a loading control.

[4] = target: T2, Human recombinant monoamine oxidase MAO-B (Homo sapiens, UniProt P27338); experiment: MAO-B inhibition, kynuramine fluorescence assay; format: biochemical
T2 construct: purchased Sigma Aldrich
T2 sequence (P27338 1-520): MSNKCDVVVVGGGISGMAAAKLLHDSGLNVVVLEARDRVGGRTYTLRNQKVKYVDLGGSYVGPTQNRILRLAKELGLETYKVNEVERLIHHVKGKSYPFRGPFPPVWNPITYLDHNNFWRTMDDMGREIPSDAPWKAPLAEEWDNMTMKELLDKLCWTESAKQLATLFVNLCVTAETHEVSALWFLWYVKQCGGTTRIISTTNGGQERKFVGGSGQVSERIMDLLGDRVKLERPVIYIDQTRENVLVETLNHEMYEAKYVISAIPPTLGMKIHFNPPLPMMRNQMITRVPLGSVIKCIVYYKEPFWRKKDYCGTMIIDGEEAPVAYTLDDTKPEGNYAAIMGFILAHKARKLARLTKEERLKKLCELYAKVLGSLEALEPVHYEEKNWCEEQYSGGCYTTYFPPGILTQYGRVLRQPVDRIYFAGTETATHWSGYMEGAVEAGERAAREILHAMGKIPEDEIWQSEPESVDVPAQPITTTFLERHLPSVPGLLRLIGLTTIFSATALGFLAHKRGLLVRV
Description: as §2
The monoamine oxidase activity was estimated by measuring the conversion of kynuramine into 4-hydroxyquinoline. […]
as §3, with “The oxidative deamination of the substrate was stopped by adding 50 μL (v/v) of NaOH 2N.” left out
as §4

[5] = tested on: Jurkat (acute T cell leukemia); experiment: In vitro cytotoxicity, Jurkat; format: cell-based; conditions: Homo sapiens, same protocol as K562
Protocol: as §1
(§5) Following the same protocol, in vitro cytotoxicity against other hematological cancer cell lines was tested.

[6] = tested on: RPMI-8226 (Multiple myeloma); experiment: In vitro cytotoxicity, RPMI-8226; format: cell-based; conditions: Homo sapiens; RPMI-8226, same protocol as K562
Protocol: as §1, §5

[7] = tested on: HL-60 (acute promyelocytic leukemia); experiment: In vitro cytotoxicity, HL-60; format: cell-based; conditions: Homo sapiens; HL-60, same protocol as K562
Protocol: as §1, §5

[8] = read-out: EC50 (μM), concentration at which 50% of the cells remain viable, K562, cell density 3xA, 72h after compound addition
[9] = read-out: EC50 (μM), concentration at which 50% of the cells remain viable, K562, cell density 10xA, 72h after compound addition
[10] = read-out: EC50 (μM), concentration at which 50% of the cells remain viable, K562, cell density A, 72h after compound addition
[11] = 10 mg/kg intraperitoneal once daily for 5 days
[12] = 20 mg/kg intraperitoneal once daily for 5 days
[13] = 40 mg/kg intraperitoneal once daily for 5 days
[14] = 30 mg/kg intraperitoneal once daily for 5 days
[15] = 3 mg/kg intraperitoneal once daily for 5 days

Structure (SMILES) | EC50 [1, 8] | EC50 [1, 9] | EC50 [1, 10] | % platelets vs. Vehicle (platelets; [11]) | pIC50 [2] | pIC50 (LSD1) | also measured
CC(C)S(=O)(=O)Nc1cccc(-c2ccc([C@H]3C[C@@H]3N)cn2)c1 [Compound 9] | 57.1 µM | 95.1 µM | 31.5 µM |  |  |  | 
NC(=O)CN[C@H]1CC1c1ccc(OCc2ccccc2)cc1 (stereo partly drawn) [Compound 1] |  |  |  | 66% | < 5.70 | > 6.70 | % platelets vs. Vehicle (platelets; 5 mg/kg intraperitoneal once daily for 5 days): 91%; % platelets vs. Vehicle (platelets; [12]): 55%; % platelets vs. Vehicle (platelets; [13]): 34%; H3K4 methylation in cells (western blot) ([3]; SH-SY5Y cells grown with compound for 1, 2, and 3 days, Dual-1 at 100 μM (FIG. 3)): increases H3K4 (4 methylation in cells in a time dependent manner; potency at increasing global dimethylated H3K4 levels as compared to tranylcypromine ([3]; SH-SY5Y cells, Dual-1 at 100 μM, parnate at 250 μM): ≥ 10 fold
N[C@H]1CC1c1ccc(-c2cccc(O)c2)cc1 (stereo partly drawn) [Compound 6] | 10.3 µM | 16.8 µM | 16.2 µM |  | < 6.00 | > 7.15 | % platelets vs. Vehicle (platelets; 17 mg/kg intraperitoneal once daily for 5 days): 56%; % platelets vs. Vehicle (platelets; 34 mg/kg intraperitoneal once daily for 5 days): 46%; % platelets vs. Vehicle (platelets; 52 mg/kg intraperitoneal once daily for 5 days): 63%; pIC50 [4]: < 6.00
CC(C)S(=O)(=O)Nc1cccc(-c2ccc([C@H]3C[C@@H]3N)cc2)c1 [Compound 8] | 16.3 µM | 19.7 µM | 17.2 µM |  | < 6.00 | > 7.15 | GI50 [5]: 18.2 µM; GI50 [6]: 35.6 µM; GI50 [7]: 21.2 µM; pIC50 [4]: < 5.00
N[C@H]1C[C@@H]1c1ccc(-c2cccc(NS(=O)(=O)c3ccccc3)c2)cc1 [Compound 10] | 13.2 µM | 17.4 µM | 14.8 µM |  |  |  | 
N[C@H]1CCN(CCN[C@H]2C[C@@H]2c2ccc(-c3cccc(C(F)(F)F)c3)cc2)C1 [Compound 5] |  |  |  | 87% |  |  | % platelets vs. Vehicle (platelets; [14]): 63%
N[C@H]1C[C@@H]1c1ccc(-c2cccc(C(F)(F)F)c2)nc1 [Compound 4] |  |  |  | 19% |  |  | % platelets vs. Vehicle (platelets; [15]): 87%; % platelets vs. Vehicle (platelets; 9 mg/kg intraperitoneal once daily for 5 days): 30%; % platelets vs. Vehicle (platelets; 18 mg/kg intraperitoneal once daily for 5 days): 19%; % platelets vs. Vehicle (platelets; [14]): 7%; % platelets vs. Vehicle (platelets; 36 mg/kg intraperitoneal once daily for 5 days): 11%
CN1CCN(C(=O)CN[C@H]2C[C@@H]2c2ccc(OCc3ccccc3)cc2)CC1 (racemic) [Compound 3] |  |  |  | 5% |  |  | % platelets vs. Vehicle (platelets; 1 mg/kg intraperitoneal once daily for 5 days): 46%; % platelets vs. Vehicle (platelets; [15]): 16%
NC(=O)CN[C@@H]1C[C@H]1c1ccc(OCc2ccccc2)cc1 [Compound 2] |  |  |  |  | < 5.70 | > 6.70 | % platelets vs. Vehicle (platelets; [12]): 35%; % platelets vs. Vehicle (platelets; [13]): 27%; % platelets vs. Vehicle (platelets; 60 mg/kg intraperitoneal once daily for 5 days): 16%
